Source: ChEMBL document CHEMBL1150252, “Heteroaromatic ester inhibitors of hepatitis A virus 3C proteinase: Evaluation of mode of action” (Bioorg Med Chem, 2008)
Several values for one entry are separate records, joined by “and”; a condition that tells them apart may be missing. Equal values may be shown once.

Tests used:
Hepatovirus A [1] = test: Inhibition of hepatitis A virus 3C proteinase at 1 uM by microplate assay
Hepatovirus A [2] = test: Inhibition of hepatitis A virus 3C proteinase at 10 uM by microplate assay
Hepatovirus A [3] = test: Inhibition of hepatitis A virus 3C proteinase at 0.25 uM by microplate assay
Hepatovirus A [4] = test: Ratio of Kcat to Km of hepatitis A virus 3C proteinase
Hepatovirus A [5] = test: Activity of hepatitis A virus 3C proteinase assessed as compound hydrolysis by HPLC
[6] = Inhibition of hepatitis A virus 3C proteinase by microplate assay; set-up: species or system Hepatovirus A
[7] = test system: O=C(Oc1cncc(Br)c1)c1ccco1; test: Ratio of Kcat to Km of SARS coronavirus 3CL proteinase; details: Severe acute respiratory syndrome-related coronavirus
[8] = test system: O=C(Oc1cncc(Br)c1)c1ccco1; test: Activity of SARS coronavirus 3CL proteinase assessed as compound hydrolysis by HPLC; details: Severe acute respiratory syndrome-related coronavirus
Replicase polyprotein 1a = Replicase polyprotein 1a (Severe acute respiratory syndrome-related coronavirus, UniProt P0C6U8); test: Inhibition of SARS coronavirus 3CL proteinase

| Compound | inhibition (Hepatovirus A [1]) [%] | inhibition (Hepatovirus A [2]) | further results |
| --- | --- | --- | --- |
| O=C(Oc1cncc(Cl)c1)c1ccccc1 | > 90 | > 90% | inhibition (Hepatovirus A [3]): < 10% |
| CCN(CC)c1ccc(C(=O)Oc2cncc(Cl)c2)cc1 | – | 64% | – |
| Cc1cccc(C(=O)Oc2cncc(Cl)c2)c1 | 32 | 63% | – |
| O=C(/C=C/c1ccco1)Oc1cncc(Cl)c1 | > 90 | 83% | kcat/Km (Hepatovirus A [4]): 1.4 ×10³ /M/s; Km (Hepatovirus A [5]): 0.18 µM; kcat (Hepatovirus A [5]): 25 ×10⁻⁵ /s; IC50 [6]: 140 nM; inhibition (Hepatovirus A [3]): 43% |
| O=C(Oc1cncc(Cl)c1)c1cscn1 | 85 | > 90% | inhibition (Hepatovirus A [3]): 37% |
| Cc1ccc(OC(=O)c2cccs2)cn1 | – | 23% | – |
| O=C(Oc1cccc(Cl)n1)c1cccs1 | – | 16% | – |
| Cc1ncccc1OC(=O)c1cccs1 | < 10 | < 10% | – |
| O=C(Oc1cncc(Cl)c1)c1ccco1 | > 90 | > 90% | kcat/Km (Hepatovirus A [4]): 4.6 ×10³ /M/s; Km (Hepatovirus A [5]): 0.24 µM; kcat (Hepatovirus A [5]): 110 ×10⁻⁵ /s; IC50 [6]: 338 nM; inhibition (Hepatovirus A [3]): 49% |
| Replicase polyprotein 1a (Severe acute respiratory syndrome-related coronavirus) (from UniProt P0C6U8) | – | – | kcat/Km [7]: 7 ×10³ /M/s; Km [8]: 0.026 µM; kcat [8]: 17 ×10⁻⁵ /s |
| Cc1ccccc1C(=O)Oc1cncc(Cl)c1 | – | 82% | – |
| Cc1ccc(OC(=O)c2cccs2)nc1 | – | 12% | – |
| O=C(Oc1ccncc1)c1cccs1 | 10 | < 10% | – |
| O=C(Oc1cncc(Cl)c1)c1ccc[nH]1 | < 10 | 92% | inhibition (Hepatovirus A [3]): < 10% |
| O=C(Oc1cccnc1Cl)c1cccs1 | – | 11% | – |
| O=C(Oc1cncc(Cl)c1)c1ccc2c(c1)OCO2 | 11 | > 90% | – |
| O=C(Oc1ccco1)c1cccnc1 | – | > 90% | – |
| CN(C)c1ccc(C(=O)Oc2cncc(Cl)c2)cc1 | > 90 | > 90% | inhibition (Hepatovirus A [3]): 20% |
| O=C(Nc1cccnc1)c1cccs1 | – | < 10% | – |
| O=C(Nc1ccccn1)c1cccs1 | – | < 10% | – |
| O=C(Nc1cccnc1Cl)c1cccs1 | – | < 10% | – |
| O=C(Oc1cncc(Cl)c1)c1ccc2[nH]ccc2c1 | 60 | 87% | inhibition (Hepatovirus A [3]): 22% |
| O=C(Oc1cncc(Cl)c1)c1ccc(F)cc1 | 45 | > 90% | – |
| O=C(Oc1cncc(Cl)c1)c1ccccc1Cl | 67 | > 90% | inhibition (Hepatovirus A [3]): 23% |
| O=C(Oc1cncc(Cl)c1)c1ccc(Cl)cc1O | 59 | > 90% | inhibition (Hepatovirus A [3]): 10% |
| O=C(Oc1cncc(Cl)c1)c1cccc(Cl)c1 | 50 | 29% | – |
| Nc1ccc(C(=O)Oc2cncc(Cl)c2)cc1 | 26 | > 90% | – |

| Compound | inhibition (Hepatovirus A [1]) [%] | inhibition (Hepatovirus A [2]) | further results |
| --- | --- | --- | --- |
| O=S(=O)(Nc1cccnc1)c1cccs1 | – | < 10% | – |
| O=C(Nc1ccncc1)c1cccs1 | – | < 10% | – |
| O=C(Oc1cncc(Cl)c1)c1cn[nH]c1 | 21 | 56% | – |
| O=C(Oc1ccccn1)c1cccs1 | 8 | 89% | – |
| O=C(Oc1cncc(Cl)c1)c1ccc(-c2ccccc2[N+](=O)[O-])o1 | – | 37% | – |
| O=C(Oc1cncc(Cl)c1)c1ccc(-c2ccccc2)cc1 | 23 | 39% | – |
| O=C(Oc1cncc(Cl)c1)c1ccc2[nH]cnc2c1 | 75 | 82% | inhibition (Hepatovirus A [3]): 32% |
| O=C(Oc1cncc(Cl)c1)c1cccc2ccccc12 | 30 | > 90% | – |
| O=C(Oc1cncc(Cl)c1)c1cc2ccccc2o1 | > 90 | > 90% | inhibition (Hepatovirus A [3]): < 10% |
| NS(=O)(=O)c1ccc(C(=O)Oc2cncc(Cl)c2)cc1 | 57 | 64% | inhibition (Hepatovirus A [3]): < 10% |
| O=C(Oc1cncc(Cl)c1)c1ccc(-c2ccc(Cl)cc2[N+](=O)[O-])o1 | – | 40% | – |
| Cc1cccc(OC(=O)c2cccs2)n1 | < 10 | 91% | – |
| Cc1ccc(OC(=O)c2cccs2)c([N+](=O)[O-])n1 | – | 14% | – |
| O=C(Oc1cncc(Cl)c1)c1cnccn1 | – | 22% | – |
| O=C(OCc1cncc(Br)c1)c1ccco1 | – | 67% | – |
| O=C(Oc1cncc(Cl)c1)c1cnc2cc(C(F)(F)F)ccc2c1O | – | < 10% | – |
| O=C(Nc1ccc(F)cn1)c1cccs1 | – | < 10% | – |
| Cc1ccsc1C(=O)Oc1cncc(Cl)c1 | – | < 10% | – |
| O=C(Oc1cncc(Cl)c1)c1ccc(-c2cc(C(F)(F)F)ccc2Cl)o1 | 36 | 76% | – |
| O=C(Oc1cncc(Cl)c1)c1ccc(Br)o1 | – | > 90% | IC50 [6]: 1200 nM; inhibition (Hepatovirus A [3]): 54% |
| COc1ccc(C(=O)Oc2cncc(Cl)c2)cc1 | – | 85% | – |
| O=C(Oc1cncc(Cl)c1)c1ccoc1 | – | > 90% | – |
| O=C(Oc1cncc(Cl)c1)c1c[nH]cn1 | 47 | 33% | inhibition (Hepatovirus A [3]): 34% |
| O=C(Oc1cncc(Cl)c1)c1ccc2[nH]nnc2c1 | – | > 90% | – |
| O=C(Nc1ccc(Cl)cn1)c1cccs1 | – | < 10% | – |
| O=C(Oc1cccc(Cl)c1)c1ccco1 | – | 11% | – |
| O=C(Oc1cncc(Cl)c1)c1ccccc1[N+](=O)[O-] | 24 | > 90% | – |

| Compound | inhibition (Hepatovirus A [1]) [%] | inhibition (Hepatovirus A [2]) | further results |
| --- | --- | --- | --- |
| CNc1ccc(C(=O)Oc2cncc(Cl)c2)cc1 | < 10 | 82% | – |
| O=C(Oc1cccnc1)c1cccs1 | 21 | 83% | – |
| Clc1cncc(OCc2ccco2)c1 | – | < 10% | – |
| COc1cccc(C(=O)Oc2cncc(Cl)c2)c1 | 50 | > 90% | – |
| O=C(Oc1cncc(Cl)c1)C1CCCCC1 | 32 | 81% | – |
| O=C(Oc1cncc(Cl)c1)c1ccc(-c2ccccc2C(F)(F)F)o1 | – | > 90% | inhibition (Hepatovirus A [3]): < 10% |
| O=C(Cc1cccnc1)c1cccs1 | – | 10% | – |
| O=C(Oc1cncc(Cl)c1)c1c[nH]c2ccccc12 | – | 13% | – |
| O=C(Oc1cncc(Cl)c1)c1cc2ccccc2[nH]1 | 58 | 80% | – |
| O=C(Oc1ccc(Cl)nc1)c1cccs1 | – | 25% | – |
| Cc1ccc(C(=O)Oc2cncc(Cl)c2)s1 | – | > 90% | inhibition (Hepatovirus A [3]): 24% |
| O=C(Oc1cncc(Cl)c1)c1cc(F)c(Cl)nc1Cl | 19 | 44% | – |
| O=C(Oc1cncc(Cl)c1)c1ccncc1 | 34 | 37% | – |
| O=C(Oc1cncc(Cl)c1)c1cc2ccccc2oc1=O | – | 75% | – |
| O=C(Oc1cncc(Cl)c1)c1ccc(-c2ccc(Cl)cc2)o1 | – | > 90% | inhibition (Hepatovirus A [3]): 36% |
| Cc1ccc(C(=O)Oc2cncc(Cl)c2)cc1 | 70 | 77% | – |
| COc1ccc(C(=O)Oc2cncc(Cl)c2)cc1OC | – | 59% | – |
| O=C(Oc1cncc(Br)c1)c1ccco1 | > 90 | – | kcat/Km (Hepatovirus A [4]): 10 ×10³ /M/s; Km (Hepatovirus A [5]): 0.12 µM; kcat (Hepatovirus A [5]): 119 ×10⁻⁵ /s; IC50 [6]: 53 nM; inhibition (Hepatovirus A [3]): 87% |
| O=C(Oc1cncc(Cl)c1)c1cc2ccccc2s1 | 47 | > 90% | – |
| O=C(Oc1cncc(Cl)c1)c1cc([N+](=O)[O-])[nH]n1 | 69 | 54% | IC50 [6]: 250 nM; inhibition (Hepatovirus A [3]): 53% |
| O=C(/C=C/c1ccccc1)Oc1cncc(Cl)c1 | 53 | > 90% | – |
| O=C(Oc1cncc(Cl)c1)c1ccc2ccccc2c1 | 35 | 23% | – |
| Cc1onc(-c2ccccc2)c1C(=O)Oc1cncc(Cl)c1 | – | < 10% | inhibition (Hepatovirus A [3]): < 10% |
| COc1ccccc1C(=O)Oc1cncc(Cl)c1 | 57 | 85% | inhibition (Hepatovirus A [3]): < 10% |
| O=C(Oc1cncc(Cl)c1)c1cccs1 | > 90 | 93% and > 90% | IC50 (Replicase polyprotein 1a): 500 nM; IC50 [6]: 470 nM; inhibition (Hepatovirus A [3]): 50% |
| O=C(Oc1cncc(Cl)c1)c1ccc2ncsc2c1 | 54 | 74% | inhibition (Hepatovirus A [3]): 27% |
